Key:
U373 cells = assay: Modulation of SK1-I lethality by signaling inhibitors, U373 cells; format: cell-based, human; conditions: U373, combined with SK1-I
Description: (§1) Cells were plated at 10,000 cells/well in 48-well plates and allowed to attach for 24 h. Cell proliferation was measured at the indicated times with WST-1 and absorbance was measured in a plate reader at 450 nm with background subtraction at 630 nm. Cell death was detected by trypan blue exclusion assays in which the percent of blue dye incorporating cells were determined using a light microscope and a hemacytometer as described (Yacoub et al. Mol Cancer Ther 7:314-329, 2008). Apoptotic cell death was measured by staining cell nuclei with the Hoechst dye bisbenzimide and apoptotic cells were identified by condensed, fragmented nuclear regions as described previously (Sankala et al. Cancer Res 67:10466-10474, 2007). A minimum of 300 cells was scored.

LN229 cells = format: cell-based; conditions: LN229, combined with SK1-I
Description: as §1

Structure (SMILES) | effect on SK1-I lethality (U373 cells) | effect on SK1-I lethality (LN229 cells)
N#CC(=C(/N)Sc1ccccc1N)/C(C#N)=C(\N)Sc1ccccc1N [U0126] | enhanced | enhanced
Oc1ccc(-c2nc(-c3ccncc3)c(-c3ccc(F)cc3)[nH]2)cc1 [SB202190] | enhanced | enhanced
